Assay results published in ChEMBL document CHEMBL1201862, “PubChem BioAssay data set” (2004).
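Cultured in 96-well plates, cells were exposed to test compound for 48 hours across five concentrations. GI50 = concentration required for 50% inhibition of growth.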 Active and inactive are the calls of the source. No stated cut-off is given here; in the data, active = GI50 up to about 1.1 µM and inactive = higher.

Tests used:
Experiment in all cases: growth of human tumour cells (NCI), 48 h
786-0 = tested on: 786-0
ACHN = tested on: ACHN
CCRF-CEM = tested on: CCRF-CEM
COLO 205 = tested on: COLO 205
EKVX = tested on: EKVX
HCT-15 = tested on: HCT-15
HOP-92 = tested on: HOP-92
LOX IMVI = tested on: LOX IMVI
M14 = tested on: M14
MDA-MB-435 = tested on: MDA-MB-435
MDA-N = tested on: MDA-N
NCI-H23 = tested on: NCI-H23
OVCAR-4 = tested on: OVCAR-4
OVCAR-5 = tested on: OVCAR-5
OVCAR-8 = tested on: OVCAR-8
RXF 393 = tested on: RXF 393
SK-MEL-28 = tested on: SK-MEL-28
T47D = tested on: T47D
TK-10 = tested on: TK-10
UO-31 = tested on: UO-31

Compound | GI50 (786-0) | GI50 (ACHN) | GI50 (CCRF-CEM) | GI50 (COLO 205) | GI50 (EKVX) | GI50 (HCT-15) [µM] | GI50 (HOP-92) | GI50 (LOX IMVI) | GI50 (M14) | GI50 (MDA-MB-435) | GI50 (MDA-N) | GI50 (NCI-H23) | GI50 (OVCAR-4) | GI50 (OVCAR-5) | GI50 (OVCAR-8) | GI50 (RXF 393) | GI50 (SK-MEL-28) | GI50 (T47D) | GI50 (TK-10) | GI50 (UO-31)
CCC(=O)OCc1ccc2oc(=O)c(C(=O)Oc3cncc(Cl)c3)cc2c1 | 74.1 µM (inactive) | > 100 µM (inactive) | < 0.01 µM (active) | 71.6 µM (inactive) | > 100 µM (inactive) | 44 | 63.2 µM (inactive) | > 100 µM (inactive) | > 100 µM (inactive) | 70 µM (inactive) | > 100 µM (inactive) | 52.2 µM (inactive) | > 100 µM (inactive) | > 100 µM (inactive) | > 100 µM (inactive) | 37.4 µM (inactive) | > 100 µM (inactive) | 98.6 µM (inactive) | 97.5 µM (inactive) | 83.8 µM (inactive)
O=C(OCCC12CC3CC(CC(C3)C1)C2)c1ccc(NCc2cc(O)ccc2O)cc1 | 1.28 µM (inactive) | 1.63 µM (inactive) | 0.101 µM (active) | 0.34 µM (active) | 1.7 µM (inactive) | 0.611 | 3.74 µM (inactive) | 0.757 µM (active) | 1.24 µM (inactive) | 1.26 µM (inactive) | 1.36 µM (inactive) | 0.689 µM (active) | 0.904 µM (active) |  |  | 0.638 µM (active) | 0.849 µM (active) | 0.214 µM (active) | 1.52 µM (inactive) | 0.376 µM (active)
O=C1NC(=O)C(c2c[nH]c3cc(Br)ccc23)=C1c1cnc[nH]1 | 50 µM (inactive) | 43.7 µM (inactive) | 34.8 µM (inactive) | 15.6 µM (inactive) | 23.4 µM (inactive) | 54.5 | > 100 µM (inactive) | 19.5 µM (inactive) | 51.6 µM (inactive) | 25.1 µM (inactive) | 35.5 µM (inactive) |  | 32.1 µM (inactive) | > 100 µM (inactive) | 65.2 µM (inactive) | 39 µM (inactive) | 62.1 µM (inactive) | 48.8 µM (inactive) | 34.9 µM (inactive) | 17.7 µM (inactive)
COc1ccc(/C=C2\CN(C)C/C(=C\c3ccc(OC)c(OC)c3OC)C2=O)c(OC)c1OC | 0.0887 µM (active) | 0.218 µM (active) | 0.019 µM (active) | 0.238 µM (active) | 1.67 µM (inactive) | 0.369 | 0.617 µM (active) | 0.115 µM (active) | 0.073 µM (active) | 0.0199 µM (active) | 0.0968 µM (active) | 0.0579 µM (active) | 0.253 µM (active) | 0.232 µM (active) | 0.07 µM (active) | 0.167 µM (active) | 0.147 µM (active) | 1.05 µM (active) | 1.01 µM (active) | 
Clc1ccc(/C=C/c2nc(-c3ccccc3)cn3c2nc2ccccc23)cc1Cl | 37.5 µM (inactive) | 49.5 µM (inactive) | 20.1 µM (inactive) | > 100 µM (inactive) | 40.3 µM (inactive) | 34.3 | 70 µM (inactive) | 59.8 µM (inactive) | 56.4 µM (inactive) | 35.3 µM (inactive) | 60 µM (inactive) | 31.2 µM (inactive) | 40.9 µM (inactive) | > 100 µM (inactive) |  | 50.7 µM (inactive) | 65.8 µM (inactive) | 41.7 µM (inactive) | 56.6 µM (inactive) | 58.1 µM (inactive)
CC(C)[C@@H]1CC[C@@H](C)C[C@H]1OC(=O)/C=C1\C(C(=O)O[C@@H]2C[C@H](C)CC[C@H]2C(C)C)[C@H]2C=C[C@@H]1O2 (stereo partly specified) | 66.5 µM (inactive) | 27.1 µM (inactive) | 23.4 µM (inactive) | 64.3 µM (inactive) | 63.4 µM (inactive) | 92.3 | 63 µM (inactive) | 34.1 µM (inactive) | 89.5 µM (inactive) | 59 µM (inactive) | 83.6 µM (inactive) | 36.7 µM (inactive) | > 100 µM (inactive) | > 100 µM (inactive) | 57.7 µM (inactive) | > 100 µM (inactive) | > 100 µM (inactive) | 75.2 µM (inactive) | > 100 µM (inactive) | > 100 µM (inactive)
O=C1CCCC1C(O)(C(F)(F)Cl)C(F)(F)Cl (stereo unspecified) | > 10 µM (inactive) | > 10 µM (inactive) | > 10 µM (inactive) | > 10 µM (inactive) | > 10 µM (inactive) | > 10 | > 10 µM (inactive) | > 10 µM (inactive) | > 10 µM (inactive) | > 10 µM (inactive) | > 10 µM (inactive) | > 10 µM (inactive) | > 10 µM (inactive) | > 10 µM (inactive) | > 10 µM (inactive) | > 10 µM (inactive) | > 10 µM (inactive) | > 10 µM (inactive) | > 10 µM (inactive) | 
CC1C(c2ccccc2O)c2cc3c(cc2OC1N1CCOCC1)OCO3 (stereo unspecified) | 34.7 µM (inactive) | 29.4 µM (inactive) | 20.7 µM (inactive) | 21.2 µM (inactive) | 34.3 µM (inactive) | 31 | 27 µM (inactive) | 18 µM (inactive) | 35.4 µM (inactive) | 25.4 µM (inactive) | 35.2 µM (inactive) | 32.4 µM (inactive) |  | 47.5 µM (inactive) | 32.1 µM (inactive) | 22.6 µM (inactive) | 40.6 µM (inactive) | 31.7 µM (inactive) | 30.3 µM (inactive) | 26.7 µM (inactive)
C=CCC(CNC(=O)OCc1ccccc1)OC(=O)OCc1ccccc1 (stereo unspecified) | 91.2 µM (inactive) | > 100 µM (inactive) | 47.4 µM (inactive) | 39.1 µM (inactive) | 33.4 µM (inactive) | 74.3 | 52.6 µM (inactive) | > 100 µM (inactive) | > 100 µM (inactive) | 57 µM (inactive) | 47.1 µM (inactive) | 43.9 µM (inactive) | 69.8 µM (inactive) | > 100 µM (inactive) | 69 µM (inactive) | > 100 µM (inactive) | > 100 µM (inactive) | 47.8 µM (inactive) | > 100 µM (inactive) | > 100 µM (inactive)
CC1Cn2c(nc3ccccc32)NC1=O (stereo unspecified) | > 100 µM (inactive) | > 100 µM (inactive) | > 100 µM (inactive) | > 100 µM (inactive) | > 100 µM (inactive) | > 100 | > 100 µM (inactive) | > 100 µM (inactive) | > 100 µM (inactive) | > 100 µM (inactive) | > 100 µM (inactive) | > 100 µM (inactive) | > 100 µM (inactive) | > 100 µM (inactive) | > 100 µM (inactive) | > 100 µM (inactive) |  | > 100 µM (inactive) | > 100 µM (inactive) | > 100 µM (inactive)
Nc1ccc2nc(-c3ccccn3)c(-c3ccccn3)nc2c1 | > 100 µM (inactive) | > 100 µM (inactive) | > 100 µM (inactive) | > 100 µM (inactive) | > 100 µM (inactive) | > 100 | > 100 µM (inactive) | > 100 µM (inactive) | > 100 µM (inactive) | > 100 µM (inactive) | > 100 µM (inactive) |  | > 100 µM (inactive) | > 100 µM (inactive) | > 100 µM (inactive) | > 100 µM (inactive) | > 100 µM (inactive) | > 100 µM (inactive) | > 100 µM (inactive) | > 100 µM (inactive)
